Measured values reported in patent US11596615B2, “Compositions and methods for treatment of insulin resistance” (Temple University—Of The Commonwealth System Of Higher …, priority 2016, dated 2023).
Entries after “also recorded” stand apart in the source; their conditions may differ. Structures can show the parent of a compound that is named as a salt.

What was measured:
[1] = Liver microsome stability, human; type: in vitro ADME, Human (pooled male and female); conditions: both sexes; human liver microsomes, 1 μM compound, 0.5 mg/ml microsomal protein, 37° C., 2 mM NADPH
Method: The stability of the title compound in the presence of liver microsomes was tested at 1 μM compound and 0.5 mg/ml rat or human microsomal protein, at 37° C. with 2 mM NADPH (standard in vitro screening concentrations). […] The “t1/2” values are the maximum time employed for the respective assays.

[2] = Intravenous and oral pharmacokinetic study in mice; type: in vivo; conditions: for VSS: dihydrochloride
Method: A pharmacokinetic study was conducted with mice (Charles river) (N=3). The animals had free access to water and standard laboratory chow under a controlled 12 hour light-dark cycle. After at least one week of an acclimation period, the mice were administrated a dose of 5 mg/kg of the title compound ((S))-2-amino-6-((3-aminopropyl)amino)hexanoic acid dihydrochloride) intravenously or 10 mg/kg orally. For both intravenous and oral administration, the compound was dissolved in saline. After intravenous administration, blood samples were collected at 10 min, 30 min, 1, 2, 4, 8 and 24 hours. For oral gavage, blood samples were collected at 15 min, 30 min 1, 2, 4, 8 and 24 hours. The blood samples were collected in polythene tubes with heparin sodium 100 unit/mL and centrifuged at 6000×g for 10 min to obtain plasma, which was stored at −20° C. until analysis.
The title compound concentration in mouse plasma was quantitated using an LC/MS/MS (API 4000, AB SCIEX). Briefly, 50 μl mouse plasma was added to 100 μl acetonitrile with internal standard (Diltiazem 10 ng/ml). The mixture was vortexed and centrifuged, and 5 μl supernatant was injected into LC/MS/MS for analysis. The separation was performed on a Waters C18 column (2.1×50 mm, […] particle size). The mobile phase consisted of 0.2% pentafluoropropionic acid in water:acetonitrile by gradient elution. A Sciex API 4000 mass spectroscopy system equipped with an electrospray source in the positive-ion multiple reaction monitoring (MRM) mode was used for detection. The MRM transitions monitored for the title compound and diltiazem were m/z 204.4/84.2 and m/z 415/178, respectively. The retention time is 12.5 min for (S)-2-amino-6-((3-aminopropyl)amino)hexanoic acid and 14 min for diltiazem. The quantitation ranged from 25 to 1000 ng/ml.

[3] = Adduct formation with 4-HNE by mass spectroscopy; conditions: equimolar 10 μM APL and 4-HNE, 1 hr incubation at 37° C.; FIG. 6A, 6B; dihydrochloride
Method: The experimental design was to incubate equimolar amounts (10 μM) of APL (dihydrochloride) with 4-HNE and measure adduct formation by mass spectroscopy before and after 1 hr incubation at 37° C.

[4] = system: mice fed high fat diet (HFD); assay: Fasting glucose and glucose tolerance test in HFD mice (Example 11); type: in vivo, C57BL/6J mice; conditions: two weeks
Method: Thirty-two C57BL/6J mice 8-weeks old were selected and randomly separated. The mice (n=8) were fed ad libitum for two weeks with either CHOW diet or high fat diet (HFD, 60% of fat content). Each group was divided in half 8 animals received regular water and the other 8 received (S)-2-amino-6-((3-aminopropyl)amino)hexanoic acid dihydrochloride dissolved in water so as to administer about 10 mg/kg of the drug body weight per mouse, per day. As an additional experimental control (n=8), a group of mice receiving HFD also received pioglitazone (10 mg/kg). Poglitazone is a well-known anti-diabetic agent. It has the ability to increase glucose uptake into the cells. […] At the end of the two weeks, animals were fasted for 5 hours, weighed, and their tails were clipped to measure fasting blood glucose levels. Immediately after, glucose was administered intraperitoneally (1 mg/g of body weight). Glucose levels were measured at 20, 40, 80 and 140 minutes after glucose administration in a glucose time test (GTT). Animals were euthanized under anesthesia (isoflurane). Blood, liver, fat and muscle tissues were collected and flash frozen for the studies. […]

3T3-L1 adipocytes = assay: Restoring glucose uptake in insulin-stimulated 3T3-L1 cells exposed to 4-HNE and H2O2 (FIG. 13); type: cell-based, mouse; conditions: 10 μM pretreatment 12 hours, then 4HNE and H2O2 4 hours
Method: Insulin-stimulated 3T3-L1 adipocytes were pretreated with the drug (S)-2-amino-6-((3-aminopropyl)amino)hexanoic acid dihydrochloride (10 μM) for 12 hours followed by exposure to 4HNE and H2O2 for an additional 4 hours. The amounts of glucose taken up by the 3T3-L1 adipocytes were measured by the MRM methods described above. The results in FIG. 13 show the effect of the drug in restoring glucose uptake in insulin-stimulated 3T3-L1 cells exposed to 4-HNE and H2O2: Control cells, no insulin (C− No Ins); control cells, with insulin (C+ Ins); 4HNE+H2O2-treated cells (4HNE/H2O2) and cells treated with drug+4HNE+H2O2 (“APL”).
Insulin-stimulated 3T3-L1 adipocytes were pretreated with the drug (S)-2-amino-5-((6-aminohexyl)amino)pentanoic acid dihydrochloride (10 μM) for 12 hours followed by exposure to 4HNE and H2O2 for an additional 4 hours. The amounts of glucose taken up by the 3T3-L1 adipocytes were measured by the MRM methods described above. FIG. 13 includes the results: cells treated with (S)-2-amino-5-((6-aminohexyl)amino)pentanoic acid trihydrochloride (MC-180351).
Insulin-stimulated 3T3-L1 adipocytes were pretreated with the drug (S)-2-amino-5-(([…])amino)pentanoic acid dihydrochloride (10 μM) for 12 hours followed by exposure to 4HNE and H2O2 for an additional 4 hours. The amounts of glucose taken up by the 3T3-L1 adipocytes were measured by the MRM methods described above. FIG. 13 includes the results: cells treated with (S)-2-amino-5-((5-aminopentyl)amino)pentanoic acid trihydrochloride (MC-180352).

Question: With `NCCCNCCCC[C@H](N)C(=O)O` [APL, (S)-2-amino-6-((3-aminopropyl)amino)hexanoic acid dihydrochloride] as the compound, how does the half-life at 1 μM [1] read?
Answer: The half-life at 1 μM was greater than 1 h.

Question: And the microsomal CLint at 1 μM [1]?
Answer: The microsomal CLint at 1 μM was less than 23 µL/min/mg.

Question: And the VSS ([2]; IV, 5 mg/kg)?
Answer: Its VSS is 0.4 L/kg.

Question: What about the AUCtot ([2]; IV, 5 mg/kg, plasma) of the same compound?
Answer: The AUCtot was 4.72 μg*hr/m.

Question: What about the CL ([2]; PO, 10 mg/kg) of the same compound?
Answer: The CL was 0.285 L/h.

Question: What about the VSS ([2]; PO, 10 mg/kg, listed as (S)-2-amino-6-((3-aminopropyl)amino)hexanoic acid dihydrochloride) of the same compound?
Answer: Its VSS is 2.12 L/kg.

Question: And the VSS ([2]; PO, 10 mg/kg, listed as (S)-2-amino-6-((3-aminopropyl)amino)hexanoic acid)?
Answer: Its VSS is 2.1 L/kg.

Question: And the AUCtot ([2]; PO, 10 mg/kg, plasma)?
Answer: The AUCtot was 10.45 μg*hr/m.

Question: What about the Cmax ([2]; mouse, IV, 5 mg/kg, plasma) of the same compound?
Answer: Its Cmax is 8360 ng/mL.

Question: What about the Cmax ([2]; mouse, PO, 10 mg/kg, plasma) of the same compound?
Answer: The Cmax was 1440 ng/mL.

Question: What about the clearance ([2]; mouse, plasma, IV, 5 mg/kg) of the same compound?
Answer: The clearance was 5.17 mL/min.

Question: And the half-life ([2]; mouse, plasma, IV, 5 mg/kg)?
Answer: Its half-life is 2.53 h.

Question: What about the Tmax ([2]; mouse, plasma, PO, 10 mg/kg) of the same compound?
Answer: The Tmax was 3.33 h.

Question: And the half-life ([2]; mouse, plasma, PO, 10 mg/kg)?
Answer: Its half-life is 3.25 h.

Question: What about the Vd ([2]; mouse, plasma, iv, 5 mg/kg, IV, 5 mg/kg, read-out: VSS) of the same compound?
Answer: The Vd was 0.414 L/kg.

Question: What about the bioavailability ([2]; mouse, plasma, oral, 10 mg/kg, PO 10 mg/kg vs IV 5 mg/kg) of the same compound?
Answer: Its bioavailability is roughly 100%.

Question: And the “adduct formation with 4-HNE” value [3]?
Answer: Its value is “forms an adduct with 4-HNE after 1 hr of incubation; also recorded: forms an adduct with 4-NHE”.

Question: And the glucose tolerance test ([4]; 10 mg/kg, glucose 1 mg/g i.p., FIG. 8C)?
Answer: Its glucose tolerance test is “drastically improved”.

Question: What about the fasting glucose levels ([4]; about 10 mg/kg per day, 5 hours fasted, FIG. 8B) of the same compound?
Answer: Its fasting glucose levels is “reduced fasting glucose levels”.

Question: And the GLUT4 carbonylations (3T3-L1 adipocytes)?
Answer: The GLUT4 carbonylations was “reduce GLUT4 carbonylations”.

Question: And the “glucose uptake impairment induced by 4-HNE and H2O2” value (3T3-L1 adipocytes; FIG. 13)?
Answer: Its value is “prevent glucose uptake impairment induced by 4-HNE and H2O2”.
